The results in this text go back to US8410107B2, “N-pyridin-3-yl or N-pyrazin-2-yl carboxamides” (Hoffmann-La Roche Inc., priority 2010, dated 2013).

For one assay, the system named is ABCA1 protein. The assay is described as follows: Detection of upregulation of ABCA1 protein in cells (ApoA-I binding, high content image analysis). The assay is classed as cell-based. To be noted: THP-1 macrophage cells; for % increase of ABCA1 at 3 μM: 24 hrs with compound; for EC50: ABCA1 protein increasing efficacy. The method, boiled down: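 THP-1 cells differentiated with 100 nM PMA for 68 hrs, loaded with 25 μg/ml acetylated LDL for 24 hours, then exposed to compound (0.5% DMSO) for 24 hrs. Surface ABCA1 measured by binding of AlexaFluor 647-labeled human ApoA-I (20 nM, 2 h, 37 °C) with confocal high-content imaging; EC50 from one-site dose-response fit.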

A further assay deals with T1, human CB1 receptor (Homo sapiens, UniProt P21554).
T1 construct: expressed in transfected cells; host or cells: human embryonic kidney (HEK) cells, Semliki Forest Virus system, membrane preparations
The assay is described as follows: CB1 receptor affinity ([3H]-CP-55,940 displacement, HEK cell membranes). The assay is classed as binding. To be noted: displacement of radioligand [3H]-CP-55,940. The method, boiled down: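 HEK cell membranes transiently expressing human CB1 (Semliki Forest Virus) incubated with [3H]-CP-55,940 and compound at 10 μM. Bound and free ligand separated by glass-fibre filtration, then scintillation counting. Reported as % inhibition of radioligand binding.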

Another assay concerns the target T2, human CB2 receptor (Homo sapiens, UniProt P34972).
T2 construct: expressed in transfected cells; host or cells: human embryonic kidney (HEK) cells, Semliki Forest Virus system, membrane preparations
The assay is described as follows: CB2 receptor affinity ([3H]-CP-55,940 displacement, HEK cell membranes). The assay is classed as binding. To be noted: displacement of radioligand [3H]-CP-55,940. The method, boiled down:
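Membranes from HEK cells transiently expressing human CB2 via Semliki Forest Virus, incubated with [3H]-CP-55,940 ± compound; bound ligand separated by glass-fiber filtration and counted by scintillation. Reported as % inhibition of radioligand binding at 10 μM compound.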

T2 sequence (P34972 whole entry): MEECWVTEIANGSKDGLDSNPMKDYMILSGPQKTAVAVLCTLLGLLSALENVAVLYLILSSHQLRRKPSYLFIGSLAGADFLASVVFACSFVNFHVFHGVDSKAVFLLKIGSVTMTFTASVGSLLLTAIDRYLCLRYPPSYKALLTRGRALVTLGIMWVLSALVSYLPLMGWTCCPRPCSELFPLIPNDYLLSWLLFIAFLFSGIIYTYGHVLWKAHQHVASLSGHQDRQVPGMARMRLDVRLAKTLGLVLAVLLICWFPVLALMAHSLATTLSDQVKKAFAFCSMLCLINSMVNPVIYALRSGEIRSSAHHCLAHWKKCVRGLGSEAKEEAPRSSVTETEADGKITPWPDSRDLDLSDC
T1 sequence (P21554 whole entry): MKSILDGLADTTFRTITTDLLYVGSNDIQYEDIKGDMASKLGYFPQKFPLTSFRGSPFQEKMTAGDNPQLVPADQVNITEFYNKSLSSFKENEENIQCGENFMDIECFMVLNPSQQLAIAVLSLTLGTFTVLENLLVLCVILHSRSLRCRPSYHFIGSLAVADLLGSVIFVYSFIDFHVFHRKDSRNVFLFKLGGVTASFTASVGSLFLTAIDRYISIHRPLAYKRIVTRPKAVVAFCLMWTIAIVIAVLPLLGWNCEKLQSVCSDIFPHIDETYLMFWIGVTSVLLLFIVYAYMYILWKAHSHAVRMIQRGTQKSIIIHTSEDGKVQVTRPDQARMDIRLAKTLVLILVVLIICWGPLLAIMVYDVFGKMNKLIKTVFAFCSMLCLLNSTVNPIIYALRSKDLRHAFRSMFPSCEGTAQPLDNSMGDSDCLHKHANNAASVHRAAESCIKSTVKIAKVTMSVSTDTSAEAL

By inhibition is commonly meant the relative decrease from the control value, in per cent. In the case of `O=C(Nc1cnc(OCC(F)(F)F)c(-c2ccc(Cl)cc2F)c1)c1cncnc1` [Example 55, N-(5-(4-chloro-2-fluorophenyl)-6-(2,2,2-trifluoroethoxy)pyridin-3-yl)pyrimidine-5-carboxamide], the “% increase of ABCA1 at 3 μM” value in the assay on ABCA1 protein is given as >45% @ 3 μM. For the same molecule, the inhibition at 10 µM on human CB1 receptor came out at 35%; at human CB2 receptor, 4%.

`CCc1ccc(-c2cc(NC(=O)c3cncnc3)cnc2OCC(F)(F)F)cc1` [Example 56, N-(5-(4-ethylphenyl)-6-(2,2,2-trifluoroethoxy)pyridin-3-yl)pyrimidine-5-carboxamide]: the “% increase of ABCA1 at 3 μM” value in the assay on ABCA1 protein is on record as >45% @ 3 μM. Moreover, the inhibition at 10 µM is 35% on human CB1 receptor and 0% at human CB2 receptor.

For `Cc1cc(-c2cc(NC(=O)c3ccnc(O)c3)cnc2OCC(F)(F)F)ccc1Cl` [Example 57, N-(5-(4-chloro-3-methylphenyl)-6-(2,2,2-trifluoroethoxy)pyridin-3-yl)-2-hydroxyisonicotinamide], the “% increase of ABCA1 at 3 μM” value in the assay on ABCA1 protein is listed as >45% @ 3 μM. Besides, the inhibition at 10 µM on human CB1 receptor was 0%; on human CB2 receptor, -18%.

As a reminder, the EC50 is the concentration needed to bring the measured effect to its halfway point. Read a low EC50 as an effect from little substance. In the assay with ABCA1 protein, `Cc1cc(-c2cc(NC(=O)c3cn(C)nc3C)cnc2OCC(F)(F)F)ccc1Cl` [Example 58, N-(5-(4-chloro-3-methylphenyl)-6-(2,2,2-trifluoroethoxy)pyridin-3-yl)-1,3-dimethyl-1H-pyrazole-4-carboxamide] displayed an EC50 of 2200 nM. Besides, the inhibition at 10 µM was 3% on human CB1 receptor and -13% at human CB2 receptor.

On to `Cc1cc(-c2cc(NC(=O)c3c(F)ccnc3F)cnc2OCC(F)(F)F)ccc1Cl` [Example 59, N-(5-(4-chloro-3-methylphenyl)-6-(2,2,2-trifluoroethoxy)pyridin-3-yl)-2,4-difluoronicotinamide], for which, in the assay on ABCA1 protein, the EC50 was found to be 3900 nM. The inhibition at 10 µM on human CB1 receptor turned out to be 22%; at human CB2 receptor it was 18%.

Regarding `O=C(Nc1cnc(OCC(F)(F)F)c(-c2ccc(Cl)cc2)c1)c1ccccc1O` [Example 60, N-(5-(4-chlorophenyl)-6-(2,2,2-trifluoroethoxy)pyridin-3-yl)-2-hydroxy-benzamide], the “% increase of ABCA1 at 3 μM” value in the assay on ABCA1 protein is listed as >45% @ 3 μM. The inhibition at 10 µM on human CB1 receptor is 38%; at human CB2 receptor, -2%.

On to `Cc1cc(-c2cc(NC(=O)c3cncc(C#N)c3)cnc2OCC(F)(F)F)ccc1Cl` [Example 61, N-(5-(4-chloro-3-methylphenyl)-6-(2,2,2-trifluoroethoxy)pyridin-3-yl)-5-cyanonicotinamide], for which the “% increase of ABCA1 at 3 μM” value in the assay on ABCA1 protein is on record as >45% @ 3 μM. The inhibition at 10 µM was 17% at human CB1 receptor and 12% at human CB2 receptor.

Regarding `Cc1cc(-c2cc(NC(=O)c3cccnn3)cnc2OCC(F)(F)F)ccc1Cl` [Example 62, N-(5-(4-chloro-3-methylphenyl)-6-(2,2,2-trifluoroethoxy)pyridin-3-yl)pyridazine-3-carboxamide], the EC50 with ABCA1 protein was determined as 2390 nM. For the same molecule, the inhibition at 10 µM on human CB1 receptor was -4%; on human CB2 receptor, 4%.

The molecule `O=C(Nc1cnc(OCC(F)(F)F)c(-c2ccc(Cl)c(F)c2)c1)c1cccnn1` [Example 63, N-(5-(4-chloro-3-fluorophenyl)-6-(2,2,2-trifluoroethoxy)pyridin-3-yl)pyridazine-3-carboxamide] registered an EC50 in the assay with ABCA1 protein of 680 nM. In addition, the inhibition at 10 µM on human CB1 receptor was 5%; at human CB2 receptor, -1%.

In the assay on ABCA1 protein, `O=C(Nc1cnc(OCC(F)(F)F)c(-c2ccc(Cl)cc2F)c1)c1cccnn1` [Example 64, N-(5-(4-chloro-2-fluorophenyl)-6-(2,2,2-trifluoroethoxy)pyridin-3-yl)pyridazine-3-carboxamide] came in with an EC50 of 1080 nM. In addition, the inhibition at 10 µM on human CB1 receptor stood at 9%; on human CB2 receptor, 2%.

The molecule `CCc1ccc(-c2cc(NC(=O)c3cccnn3)cnc2OCC(F)(F)F)cc1` [Example 65, N-(5-(4-ethylphenyl)-6-(2,2,2-trifluoroethoxy)pyridin-3-yl)pyridazine-3-carboxamide] showed an EC50 with ABCA1 protein of 270 nM. The inhibition at 10 µM turned out to be 19% on human CB1 receptor and 5% at human CB2 receptor.

In the case of `O=C(Nc1cnc(OCC(F)(F)F)c(-c2ccc(Cl)cc2)c1)c1ccco1` [Example 66, N-(5-(4-chlorophenyl)-6-(2,2,2-trifluoroethoxy)pyridin-3-yl)furan-2-carboxamide], in the assay with ABCA1 protein, the “% increase of ABCA1 at 3 μM” value is listed as >45% @ 3 μM. Further, the inhibition at 10 µM on human CB1 receptor is 30%; at human CB2 receptor, 5%.

Regarding `O=C(Nc1cnc(OCC(F)(F)F)c(-c2ccc(Cl)cc2)c1)c1ccoc1` [Example 67, N-(5-(4-chlorophenyl)-6-(2,2,2-trifluoroethoxy)pyridin-3-yl)furan-3-carboxamide], the “% increase of ABCA1 at 3 μM” value with ABCA1 protein is recorded as >45% @ 3 μM. The inhibition at 10 µM on human CB1 receptor came out at 33%; at human CB2 receptor it was 9%.

As for `Cc1ccc(C(=O)Nc2cnc(OCC(F)(F)F)c(-c3ccc(Cl)cc3)c2)o1` [Example 68, N-(5-(4-chlorophenyl)-6-(2,2,2-trifluoroethoxy)pyridin-3-yl)-5-methylfuran-2-carboxamide], in the assay with ABCA1 protein, the “% increase of ABCA1 at 3 μM” value is >45% @ 3 μM. The inhibition at 10 µM at human CB1 receptor stood at 26%; at human CB2 receptor, 4%.

Consider `COCCOc1ncc(NC(=O)c2ccccc2)cc1-c1ccc(Cl)c(C)c1` [Example 69, N-(5-(4-chloro-3-methylphenyl)-6-(2-methoxyethoxy)pyridin-3-yl)benzamide], for which, in the assay on ABCA1 protein, the “% increase of ABCA1 at 3 μM” value is reported as >45% @ 3 μM. Moreover, the values for the inhibition at 10 µM at human CB1 receptor and on human CB2 receptor were 35% and 18%, respectively.

In the assay on ABCA1 protein, `CN1CCOc2cc(C(=O)Nc3cnc(OCC(F)(F)F)c(-c4ccc(Cl)cc4)c3)cnc21` [Example 72, N-(5-(4-chlorophenyl)-6-(2,2,2-trifluoroethoxy)pyridin-3-yl)-4-methyl-3,4-dihydro-2H-pyrido[3,2-b][1,4]oxazine-7-carboxamide] registered an EC50 of 780 nM. Also, the inhibition at 10 µM was 25% at human CB1 receptor and -7% on human CB2 receptor.

With `Nc1ccc(-c2cc(NC(=O)c3cncc(I)c3)cnc2OCC(F)(F)F)cc1Cl` [Example 73, N-(5-(4-amino-3-chlorophenyl)-6-(2,2,2-trifluoroethoxy)pyridin-3-yl)-5-iodonicotinamide], the “% increase of ABCA1 at 3 μM” value in the assay on ABCA1 protein is recorded as >45% @ 3 μM. For the same molecule, the inhibition at 10 µM at human CB1 receptor amounted to 13%; at human CB2 receptor, 22%.

In the case of `O=C(Nc1cnc(OCC(F)(F)F)c(-c2ccccc2)c1)c1cccnc1` [Example 74, N-(5-phenyl-6-(2,2,2-trifluoroethoxy)pyridin-3-yl)nicotinamide], in the assay on ABCA1 protein, the “% increase of ABCA1 at 3 μM” value is listed as >45% @ 3 μM. Moreover, the values for the inhibition at 10 µM on human CB1 receptor and on human CB2 receptor were 17% and -7%, respectively.

Regarding `O=C(Nc1cnc(OCC(F)(F)F)c(-c2ccc(F)cc2)c1)c1cccnc1` [Example 75, N-(5-(4-fluorophenyl)-6-(2,2,2-trifluoroethoxy)pyridin-3-yl)nicotinamide], the “% increase of ABCA1 at 3 μM” value in the assay with ABCA1 protein is >45% @ 3 μM. The figures for the inhibition at 10 µM on human CB1 receptor and on human CB2 receptor were 31% and 5%, respectively.

As for `O=C(Nc1cnc(OCC(F)(F)F)c(-c2cccc(Cl)c2)c1)c1cccnc1` [Example 76, N-(5-(3-chlorophenyl)-6-(2,2,2-trifluoroethoxy)pyridin-3-yl)nicotinamide], in the assay on ABCA1 protein, the “% increase of ABCA1 at 3 μM” value is given as >45% @ 3 μM. The inhibition at 10 µM at human CB1 receptor turned out to be 1%; at human CB2 receptor, 5%.

In the assay on ABCA1 protein, `COc1cncc(C(=O)Nc2cnc(OCC(F)(F)F)c(-c3ccc(Cl)cc3)c2)c1` [Example 77, N-(5-(4-chlorophenyl)-6-(2,2,2-trifluoroethoxy)pyridin-3-yl)-5-methoxynicotinamide] gave an EC50 of 720 nM. In addition, the inhibition at 10 µM on human CB1 receptor was determined as 33%; on human CB2 receptor it was 16%.

On to `O=C(Nc1cnc(OC2CCC2)c(-c2ccc(Cl)cc2)c1)c1cnccn1` [Example 78, N-(5-(4-chlorophenyl)-6-cyclobutoxypyridin-3-yl)pyrazine-2-carboxamide], for which the “% increase of ABCA1 at 3 μM” value in the assay with ABCA1 protein is on record as >45% @ 3 μM. Further, the inhibition at 10 µM turned out to be 25% on human CB1 receptor and 26% at human CB2 receptor.

Take `O=C(Nc1cnc(OC2CCC2)c(-c2ccc(Cl)cc2)c1)c1cccnc1` [Example 79, N-(5-(4-chlorophenyl)-6-cyclobutoxypyridin-3-yl)nicotinamide]: the “% increase of ABCA1 at 3 μM” value in the assay on ABCA1 protein is given as >45% @ 3 μM. Further, the inhibition at 10 µM at human CB1 receptor turned out to be 29%; at human CB2 receptor, 13%.

`Cc1cc(-c2cc(NC(=O)c3cnc4c(c3)OCCN4C)cnc2OCC(F)(F)F)ccc1Cl` [Example 80, N-(5-(4-chloro-3-methylphenyl)-6-(2,2,2-trifluoroethoxy)pyridin-3-yl)-4-methyl-3,4-dihydro-2H-pyrido[3,2-b][1,4]oxazine-7-carboxamide]: the “% increase of ABCA1 at 3 μM” value in the assay with ABCA1 protein was >45% @ 3 μM. Besides, the inhibition at 10 µM was 16% at human CB1 receptor and 14% on human CB2 receptor.

`CN1CCOc2cc(C(=O)Nc3cnc(OCC(F)(F)F)c(-c4ccc(Cl)c(F)c4)c3)cnc21` [Example 81, N-(5-(4-chloro-3-fluorophenyl)-6-(2,2,2-trifluoroethoxy)pyridin-3-yl)-4-methyl-3,4-dihydro-2H-pyrido[3,2-b][1,4]oxazine-7-carboxamide]: in the assay with ABCA1 protein, a half-maximal response (EC50) required 2560 nM. Besides, the inhibition at 10 µM is 21% on human CB1 receptor and 5% at human CB2 receptor.
